Experimental data reported in patent US4540700A, “Treatment of diabetic complications with certain spiro-imidazolidine-diones” (Alcon Laboratories, Inc., priority 1984, dated 1985).

Tested on: cataract formation in galactocemic rats
Test: in vivo dose response by intubation (per oral) in galactocemic rats, cataract (vacuole) formation
Parameters: species or system Charles River CD (Sprague-Dawley derived) male rats
Experimental: B. In vivo dose response studies were conducted to test the in vivo activity of the following compounds by intubation (per oral) in galactocemic rats on a 30% galactose diet previously described:
Stock suspensions of the test compounds and all dilutions of the compound were formulated with 0.03% by weight Tween 80.
Healthy, Charles River CD (outbred albino, Sprague-Dawley derived) male rats, aged 20-30 days, without observable ocular defects and ranging in weight from 35-45 grams, were acclimated to experimental conditions (in quarantine) for two days prior to beginning the study.
Rats were individually assigned to one of twenty-three groups according to a random number schedule. Two rats, belonging to the same drug-diet treatment group, were housed per cage. Treatment and control groups consisted of six (6) rats each with no replacement in the event of death, and were designated as follows:
Lenses of all eyes were examined with a hand-held ophthalmoscope in the early stages of cataract development and a penlight for the stages, snowflake-like, snowflake, and nuclear cataract. Lens grading occurred every day for the first ten study days, and then every other day until study Day 14.
The relative potency determination was made at 7 drug levels over half log dose intervals. The response (percent cataracts formed and/or the time to cataract formation) was plotted against mg/kg and/or moles/kg.
The study was directed to the suppression and/or elimination of the initial stages of cataract development characterized by vacuoles or snowflake-likeopacities only. It was assumed therefore that suppression and/or elimination of vacuoles or lens opacification by the test drugs affects the transport, absorption and/or metabolism of galactose in such a manner as to prevent subsequent osmotic disturbances normally leading to tissue degeneration and advanced cataract. Advanced cataract defined as stages 2-4 of the Sipple classification was assumed to be of secondary importance to the etiology of cataract inhibition.
In the event where cataract stage other than vacuole formed, such as snowflake-like opacities, this cataract was counted similarly as vacuole in percent cataract formation.
This study yielded this expected effect in the control groups.
All animals were fed Purina Laboratory Chow and water, ad libitum, for the two day acclimation period. All drugs were dosed orally by intubation using an animal feeding needle (Popper and Sons), 18 or 20 gauge, attached to a 1 or 3 ml syringe. Once the dosing time schedule was established, the schedule was followed throughout the study to compensate for any diurnal variation.
The animals were kept on a twelve hour day/night cycle. The temperature and humidity were determined each day at the scheduled dosing time of 1:00 p.m.
The animals were weighed every other day and adjustments to dosage amounts to compensate for weight gain were made each day prior to the dose time. All food was routinely withheld from all animal groups for four hours (9:00 a.m.) prior to the drug dose and restored two hours (3:00 p.m.) post-dose. Otherwise sufficient amounts of chow or diet mixture were maintained in the food hopper to allow the animals to eat ad libitum. There were two days of drug dosage with the animals remaining on Purina Laboratory Chow (Days 1 and 2). The 30% galactose diet mixture was introduced to the animals two hours post-dose on Day 3 which constituted Day 1 of the study.
All eyes were examined with a hand-held ophthalmoscope and/or penlight at the times designated in the Experimental Design section.
It has been found in previous studies that dilation of the eye with a mydriactic (i.e. Mydriacyl) is not necessary for accurate grading, due to the semi-transparent nature of the rat iris. In the early stages (i.e., grades -, ±, and +) the lens was observed by reflecting the ophthalmoscope beam off the retina back through the lens and iris. Using this technique, vacuoles appear as dark, almost opaque patches. […]

[1] = relative to Sarges Racemic, observation day 12, 95% confidence limits

O=C1NC(=O)C2(N1)c1ccccc1-c1ccc(F)cc12 (racemic) [Compound L, dl-Spiro(2-fluorofluoren-9,4'-imidazolidine)-2',5'-dione]
Percent of Rat Eyes With at Least Vacuoles Formed (0.126 mg/kg p.o., Day 0): 0%
Percent of Rat Eyes With at Least Vacuoles Formed (0.126 mg/kg p.o., Day 1): 0%
Percent of Rat Eyes With at Least Vacuoles Formed (0.126 mg/kg p.o., Day 2): 0%
Percent of Rat Eyes With at Least Vacuoles Formed (0.126 mg/kg p.o., Day 3): 0%
Percent of Rat Eyes With at Least Vacuoles Formed (0.126 mg/kg p.o., Day 4): 0%
Percent of Rat Eyes With at Least Vacuoles Formed (0.126 mg/kg p.o., Day 5): 0%
Percent of Rat Eyes With at Least Vacuoles Formed (0.126 mg/kg p.o., Day 6): 33%
Percent of Rat Eyes With at Least Vacuoles Formed (0.126 mg/kg p.o., Day 7): 33%
Percent of Rat Eyes With at Least Vacuoles Formed (0.126 mg/kg p.o., Day 8): 50%
Percent of Rat Eyes With at Least Vacuoles Formed (0.126 mg/kg p.o., Day 9): 50%
Percent of Rat Eyes With at Least Vacuoles Formed (0.126 mg/kg p.o., Day 10): 50%
Percent of Rat Eyes With at Least Vacuoles Formed (0.126 mg/kg p.o., Day 12): 83%
Percent of Rat Eyes With at Least Vacuoles Formed (0.126 mg/kg p.o., Day 14): 83%
Percent of Rat Eyes With at Least Vacuoles Formed (0.4 mg/kg p.o., Day 0): 0%
Percent of Rat Eyes With at Least Vacuoles Formed (0.4 mg/kg p.o., Day 1): 0%
Percent of Rat Eyes With at Least Vacuoles Formed (0.4 mg/kg p.o., Day 2): 0%
Percent of Rat Eyes With at Least Vacuoles Formed (0.4 mg/kg p.o., Day 3): 0%
Percent of Rat Eyes With at Least Vacuoles Formed (0.4 mg/kg p.o., Day 4): 0%
Percent of Rat Eyes With at Least Vacuoles Formed (0.4 mg/kg p.o., Day 5): 0%
Percent of Rat Eyes With at Least Vacuoles Formed (0.4 mg/kg p.o., Day 6): 0%
Percent of Rat Eyes With at Least Vacuoles Formed (0.4 mg/kg p.o., Day 7): 8%
Percent of Rat Eyes With at Least Vacuoles Formed (0.4 mg/kg p.o., Day 8): 42%
Percent of Rat Eyes With at Least Vacuoles Formed (0.4 mg/kg p.o., Day 9): 42%
Percent of Rat Eyes With at Least Vacuoles Formed (0.4 mg/kg p.o., Day 10): 67%
Percent of Rat Eyes With at Least Vacuoles Formed (0.4 mg/kg p.o., Day 12): 83%
Percent of Rat Eyes With at Least Vacuoles Formed (0.4 mg/kg p.o., Day 14): 100%
Percent of Rat Eyes With at Least Vacuoles Formed (1.26 mg/kg p.o., Day 0): 0%
Percent of Rat Eyes With at Least Vacuoles Formed (1.26 mg/kg p.o., Day 1): 0%
Percent of Rat Eyes With at Least Vacuoles Formed (1.26 mg/kg p.o., Day 2): 0%
Percent of Rat Eyes With at Least Vacuoles Formed (1.26 mg/kg p.o., Day 3): 0%
Percent of Rat Eyes With at Least Vacuoles Formed (1.26 mg/kg p.o., Day 4): 0%
Percent of Rat Eyes With at Least Vacuoles Formed (1.26 mg/kg p.o., Day 5): 0%
Percent of Rat Eyes With at Least Vacuoles Formed (1.26 mg/kg p.o., Day 6): 0.0%
Percent of Rat Eyes With at Least Vacuoles Formed (1.26 mg/kg p.o., Day 6, listed as 2-fluoro): 0%
Percent of Rat Eyes With at Least Vacuoles Formed (1.26 mg/kg p.o., Day 7): 0%
Percent of Rat Eyes With at Least Vacuoles Formed (1.26 mg/kg p.o., Day 8): 0%
Percent of Rat Eyes With at Least Vacuoles Formed (1.26 mg/kg p.o., Day 9): 0%
Percent of Rat Eyes With at Least Vacuoles Formed (1.26 mg/kg p.o., Day 10): 0%
Percent of Rat Eyes With at Least Vacuoles Formed (1.26 mg/kg p.o., Day 12): 0%
Percent of Rat Eyes With at Least Vacuoles Formed (1.26 mg/kg p.o., Day 14): 0%
Percent of Rat Eyes With at Least Vacuoles Formed (4.0 mg/kg p.o., Day 0): 0%
Percent of Rat Eyes With at Least Vacuoles Formed (4.0 mg/kg p.o., Day 1): 0%
Percent of Rat Eyes With at Least Vacuoles Formed (4.0 mg/kg p.o., Day 2): 0%
Percent of Rat Eyes With at Least Vacuoles Formed (4.0 mg/kg p.o., Day 3): 0%
Percent of Rat Eyes With at Least Vacuoles Formed (4.0 mg/kg p.o., Day 4): 0%
Percent of Rat Eyes With at Least Vacuoles Formed (4.0 mg/kg p.o., Day 5): 0%
Percent of Rat Eyes With at Least Vacuoles Formed (4.0 mg/kg p.o., Day 6): 0.0%
Percent of Rat Eyes With at Least Vacuoles Formed (4.0 mg/kg p.o., Day 6, listed as 2-fluoro): 0%
Percent of Rat Eyes With at Least Vacuoles Formed (4.0 mg/kg p.o., Day 7): 0.0%
Percent of Rat Eyes With at Least Vacuoles Formed (4.0 mg/kg p.o., Day 7, listed as 2-fluoro): 0%
Percent of Rat Eyes With at Least Vacuoles Formed (4.0 mg/kg p.o., Day 8): 0.0%
Percent of Rat Eyes With at Least Vacuoles Formed (4.0 mg/kg p.o., Day 8, listed as 2-fluoro): 0%
Percent of Rat Eyes With at Least Vacuoles Formed (4.0 mg/kg p.o., Day 9): 0.0%
Percent of Rat Eyes With at Least Vacuoles Formed (4.0 mg/kg p.o., Day 9, listed as 2-fluoro): 0%
Percent of Rat Eyes With at Least Vacuoles Formed (4.0 mg/kg p.o., Day 10): 0.0%
Percent of Rat Eyes With at Least Vacuoles Formed (4.0 mg/kg p.o., Day 10, listed as 2-fluoro): 0%
Percent of Rat Eyes With at Least Vacuoles Formed (4.0 mg/kg p.o., Day 12): 0.0%
Percent of Rat Eyes With at Least Vacuoles Formed (4.0 mg/kg p.o., Day 12, listed as 2-fluoro): 0%
Percent of Rat Eyes With at Least Vacuoles Formed (4.0 mg/kg p.o., Day 14): 0.0%
Percent of Rat Eyes With at Least Vacuoles Formed (4.0 mg/kg p.o., Day 14, listed as 2-fluoro): 0%
Percent of Rat Eyes With at Least Vacuoles Formed (12.6 mg/kg p.o., Day 0): 0%
Percent of Rat Eyes With at Least Vacuoles Formed (12.6 mg/kg p.o., Day 1): 0%
Percent of Rat Eyes With at Least Vacuoles Formed (12.6 mg/kg p.o., Day 2): 0%
Percent of Rat Eyes With at Least Vacuoles Formed (12.6 mg/kg p.o., Day 3): 0%
Percent of Rat Eyes With at Least Vacuoles Formed (12.6 mg/kg p.o., Day 4): 0%
Percent of Rat Eyes With at Least Vacuoles Formed (12.6 mg/kg p.o., Day 5): 0%
Percent of Rat Eyes With at Least Vacuoles Formed (12.6 mg/kg p.o., Day 6): 0.0%
Percent of Rat Eyes With at Least Vacuoles Formed (12.6 mg/kg p.o., Day 6, listed as 2-fluoro): 0%
Percent of Rat Eyes With at Least Vacuoles Formed (12.6 mg/kg p.o., Day 7): 0.0%
Percent of Rat Eyes With at Least Vacuoles Formed (12.6 mg/kg p.o., Day 7, listed as 2-fluoro): 0%
Percent of Rat Eyes With at Least Vacuoles Formed (12.6 mg/kg p.o., Day 8): 0.0%
Percent of Rat Eyes With at Least Vacuoles Formed (12.6 mg/kg p.o., Day 8, listed as 2-fluoro): 0%
Percent of Rat Eyes With at Least Vacuoles Formed (12.6 mg/kg p.o., Day 9): 0.0%
Percent of Rat Eyes With at Least Vacuoles Formed (12.6 mg/kg p.o., Day 9, listed as 2-fluoro): 0%
Percent of Rat Eyes With at Least Vacuoles Formed (12.6 mg/kg p.o., Day 10): 0.0%
Percent of Rat Eyes With at Least Vacuoles Formed (12.6 mg/kg p.o., Day 10, listed as 2-fluoro): 0%
Percent of Rat Eyes With at Least Vacuoles Formed (12.6 mg/kg p.o., Day 12): 0.0%
Percent of Rat Eyes With at Least Vacuoles Formed (12.6 mg/kg p.o., Day 12, listed as 2-fluoro): 0%
Percent of Rat Eyes With at Least Vacuoles Formed (12.6 mg/kg p.o., Day 14): 0.0%
Percent of Rat Eyes With at Least Vacuoles Formed (12.6 mg/kg p.o., Day 14, listed as 2-fluoro): 0%
Percent of Rat Eyes With at Least Vacuoles Formed (40 mg/kg p.o., Day 0): 0%
Percent of Rat Eyes With at Least Vacuoles Formed (40 mg/kg p.o., Day 1): 0%
Percent of Rat Eyes With at Least Vacuoles Formed (40 mg/kg p.o., Day 2): 0%
Percent of Rat Eyes With at Least Vacuoles Formed (40 mg/kg p.o., Day 3): 0%
Percent of Rat Eyes With at Least Vacuoles Formed (40 mg/kg p.o., Day 4): 0%
Percent of Rat Eyes With at Least Vacuoles Formed (40 mg/kg p.o., Day 5): 0%
Percent of Rat Eyes With at Least Vacuoles Formed (40 mg/kg p.o., Day 6): 0.0%
Percent of Rat Eyes With at Least Vacuoles Formed (40 mg/kg p.o., Day 6, listed as 2-fluoro): 0%
Percent of Rat Eyes With at Least Vacuoles Formed (40 mg/kg p.o., Day 7): 0.0%
Percent of Rat Eyes With at Least Vacuoles Formed (40 mg/kg p.o., Day 7, listed as 2-fluoro): 0%
Percent of Rat Eyes With at Least Vacuoles Formed (40 mg/kg p.o., Day 8): 0.0%
Percent of Rat Eyes With at Least Vacuoles Formed (40 mg/kg p.o., Day 8, listed as 2-fluoro): 0%
Percent of Rat Eyes With at Least Vacuoles Formed (40 mg/kg p.o., Day 9): 0.0%
Percent of Rat Eyes With at Least Vacuoles Formed (40 mg/kg p.o., Day 9, listed as 2-fluoro): 0%
Percent of Rat Eyes With at Least Vacuoles Formed (40 mg/kg p.o., Day 10): 0.0%
Percent of Rat Eyes With at Least Vacuoles Formed (40 mg/kg p.o., Day 10, listed as 2-fluoro): 0%
Percent of Rat Eyes With at Least Vacuoles Formed (40 mg/kg p.o., Day 12): 0.0%
Percent of Rat Eyes With at Least Vacuoles Formed (40 mg/kg p.o., Day 12, listed as 2-fluoro): 0%
Percent of Rat Eyes With at Least Vacuoles Formed (40 mg/kg p.o., Day 14): 0.0%
Percent of Rat Eyes With at Least Vacuoles Formed (40 mg/kg p.o., Day 14, listed as 2-fluoro): 0%
activity in vivo relative to the Sarges compound (rat studies): unexpectedly and significantly more active
Relative Potency (antilog) [1]: 4.58
log relative potency for eyes with vacuoles or more advanced cataracts [1]: 0.6605
